# From ChEMBL document CHEMBL1201862, “PubChem BioAssay data set” (2004)
# Structures can show the parent of a compound that is named as a salt. Activity calls are given as the source filed them.
# Experiments:
# [1] = Luminescence Cell-Based Dose Response HTS to Identify Activators of Luciferase Translation or Activity in H4 […] Cells. [Related pubchem assays: 1829 (Project Summary), 1814 (Primary HTS)]; type: functional
# [2] = Luminescence Cell-Based Dose Confirmation HTS to Identify Activators of 5'UTR Stem-Loop Driven Alpha-Synuclein mRNA Translation in H4 Neuroglioblastoma Cells. [Related pubchem assays: 1829 (Project Summary), 1814 (Primary HTS)]; type: functional
# [3] = Luminescence Cell-Based Dose Confirmation to Identify Activators of 5'UTR Stem-Loop Driven Alpha-Synuclein mRNA Translation in H4 Neuroglioblastoma Cells. [Related pubchem assays: 1829 (Project Summary), 1814 (Primary HTS)]; type: functional
# [4] = Luminescence Cell-Based Dose Response to Identify Activators of 5'UTR Stem-Loop Driven Prion Protein mRNA Translation in H4-C Neuroglioblastoma Cells. [Related pubchem assays: 1829 (Project Summary), 1814 (Primary HTS)]; type: functional
# H4 = test: Luminescence Cell-Based Dose Response HTS to Identify Activators of 5'UTR Stem-Loop Driven Prion Protein mRNA Translation in H4 Neuroglioblastoma Cells. [Related pubchem assays: 1829 (Project Summary), 1814 (Primary HTS)]; type: functional; details: Homo sapiens
# [5] = Luminescence Cell-Based Dose Response to Identify Activators of Luciferase Translation or Activity in H4-C Neuroglioblastoma Cells. [Related pubchem assays: 1829 (Project Summary), 1814 (Primary HTS)]; type: functional
# [6] = molecular target: T1, Tyrosine-protein phosphatase non-receptor type 22 (Homo sapiens, UniProt Q9Y2R2); test: LYP (PTPN22) phosphatase inhibitor potency, SAR follow-up, biochemical, pCAP fluorogenic substrate, fluorescence, set 3 (AID 449727); type: functional
# T1 sequence (Q9Y2R2 whole entry): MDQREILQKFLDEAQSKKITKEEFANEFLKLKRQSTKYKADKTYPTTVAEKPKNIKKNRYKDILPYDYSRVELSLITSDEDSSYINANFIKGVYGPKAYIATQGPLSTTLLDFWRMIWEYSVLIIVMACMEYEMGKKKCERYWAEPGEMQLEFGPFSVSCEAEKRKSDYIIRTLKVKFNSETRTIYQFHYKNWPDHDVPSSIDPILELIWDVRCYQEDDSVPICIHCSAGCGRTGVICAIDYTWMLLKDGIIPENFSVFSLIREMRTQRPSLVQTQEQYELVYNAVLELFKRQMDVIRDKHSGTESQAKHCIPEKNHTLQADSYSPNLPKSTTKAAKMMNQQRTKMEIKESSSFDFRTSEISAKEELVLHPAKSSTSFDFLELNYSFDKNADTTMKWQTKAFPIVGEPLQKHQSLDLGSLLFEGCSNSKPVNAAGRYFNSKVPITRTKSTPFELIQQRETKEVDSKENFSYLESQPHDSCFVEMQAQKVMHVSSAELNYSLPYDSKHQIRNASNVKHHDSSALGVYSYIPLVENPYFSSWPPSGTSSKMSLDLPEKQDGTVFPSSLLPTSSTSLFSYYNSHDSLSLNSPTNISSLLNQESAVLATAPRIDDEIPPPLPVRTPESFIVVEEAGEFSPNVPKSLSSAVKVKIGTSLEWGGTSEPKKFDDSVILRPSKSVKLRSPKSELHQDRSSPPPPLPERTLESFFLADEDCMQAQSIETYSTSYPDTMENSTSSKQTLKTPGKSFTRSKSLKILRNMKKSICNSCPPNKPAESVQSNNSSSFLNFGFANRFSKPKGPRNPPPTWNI
# [7] = molecular target: T2, Tyrosine-protein phosphatase non-receptor type 12 (Homo sapiens, UniProt Q05209); test: SAR Selectivity Analysis of small molecule inhibitors of PEST using pCAP in a fluorescence assay. [Related pubchem assays (depositor defined):AID1779, AID1784, AID2135]; type: functional
# T2 sequence (Q05209 whole entry): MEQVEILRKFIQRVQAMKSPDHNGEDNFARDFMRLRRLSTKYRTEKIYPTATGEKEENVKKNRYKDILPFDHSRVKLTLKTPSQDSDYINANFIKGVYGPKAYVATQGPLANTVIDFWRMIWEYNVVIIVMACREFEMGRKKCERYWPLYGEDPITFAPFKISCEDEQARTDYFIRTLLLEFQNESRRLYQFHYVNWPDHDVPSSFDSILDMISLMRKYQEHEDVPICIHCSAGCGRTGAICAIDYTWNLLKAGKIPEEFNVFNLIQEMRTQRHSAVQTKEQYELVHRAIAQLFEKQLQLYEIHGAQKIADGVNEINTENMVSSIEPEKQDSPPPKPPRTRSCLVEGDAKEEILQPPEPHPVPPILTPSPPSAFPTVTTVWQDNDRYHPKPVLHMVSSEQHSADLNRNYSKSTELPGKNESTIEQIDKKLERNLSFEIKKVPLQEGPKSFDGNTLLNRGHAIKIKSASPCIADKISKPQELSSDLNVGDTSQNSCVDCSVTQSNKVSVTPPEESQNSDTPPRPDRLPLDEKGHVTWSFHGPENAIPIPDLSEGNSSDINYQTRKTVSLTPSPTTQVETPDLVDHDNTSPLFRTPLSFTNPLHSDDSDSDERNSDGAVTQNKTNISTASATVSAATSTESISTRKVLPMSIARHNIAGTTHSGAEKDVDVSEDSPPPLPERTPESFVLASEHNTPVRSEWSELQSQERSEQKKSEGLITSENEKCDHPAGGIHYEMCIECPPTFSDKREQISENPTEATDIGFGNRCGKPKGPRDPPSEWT
# [8] = molecular target: Glyceraldehyde-3-phosphate dehydrogenase (Homo sapiens, UniProt P04406)
# Chain of Glyceraldehyde-3-phosphate dehydrogenase (P04406 whole entry): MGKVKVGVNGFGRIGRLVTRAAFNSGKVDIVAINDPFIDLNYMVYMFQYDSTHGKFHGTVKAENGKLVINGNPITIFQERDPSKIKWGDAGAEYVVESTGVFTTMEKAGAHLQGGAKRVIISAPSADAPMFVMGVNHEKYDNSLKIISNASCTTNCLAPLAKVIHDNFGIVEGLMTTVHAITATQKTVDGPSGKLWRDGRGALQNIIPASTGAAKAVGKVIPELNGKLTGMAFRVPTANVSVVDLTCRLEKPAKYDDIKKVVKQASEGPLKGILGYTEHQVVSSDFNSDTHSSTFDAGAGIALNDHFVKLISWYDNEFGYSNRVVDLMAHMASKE
# [9] = molecular target: T1, Tyrosine-protein phosphatase non-receptor type 22; test: SAR LYP1 Fluorescent Assay using OMFP substrate for In Vitro dose response studies - Set 3. [Related pubchem assays (depositor defined):AID1779, AID1784, AID2140, AID2686]; type: functional
# [10] = molecular target: Peroxisome proliferator-activated receptor gamma/Nuclear receptor coactivator 2 (Homo sapiens, UniProt P37231); type: functional;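 also: agonist potency for raising coactivator recruitment to the receptor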
# Chain of Peroxisome proliferator-activated receptor gamma/Nuclear receptor coactivator 2 (P37231 whole entry): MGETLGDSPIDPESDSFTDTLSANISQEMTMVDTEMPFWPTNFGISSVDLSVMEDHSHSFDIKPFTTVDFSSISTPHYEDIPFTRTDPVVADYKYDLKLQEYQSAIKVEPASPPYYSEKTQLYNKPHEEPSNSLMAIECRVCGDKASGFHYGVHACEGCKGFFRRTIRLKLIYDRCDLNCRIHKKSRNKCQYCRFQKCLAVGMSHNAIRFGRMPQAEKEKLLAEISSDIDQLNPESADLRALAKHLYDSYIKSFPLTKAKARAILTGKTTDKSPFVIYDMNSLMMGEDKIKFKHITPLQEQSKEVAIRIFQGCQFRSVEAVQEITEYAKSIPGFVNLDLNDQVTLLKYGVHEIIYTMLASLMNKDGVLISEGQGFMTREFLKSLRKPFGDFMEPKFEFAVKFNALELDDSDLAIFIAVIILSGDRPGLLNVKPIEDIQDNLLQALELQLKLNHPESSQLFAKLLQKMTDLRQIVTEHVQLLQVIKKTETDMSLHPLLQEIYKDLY
# Chain of Peroxisome proliferator-activated receptor gamma/Nuclear receptor coactivator 2 (Q15596 whole entry, further chain): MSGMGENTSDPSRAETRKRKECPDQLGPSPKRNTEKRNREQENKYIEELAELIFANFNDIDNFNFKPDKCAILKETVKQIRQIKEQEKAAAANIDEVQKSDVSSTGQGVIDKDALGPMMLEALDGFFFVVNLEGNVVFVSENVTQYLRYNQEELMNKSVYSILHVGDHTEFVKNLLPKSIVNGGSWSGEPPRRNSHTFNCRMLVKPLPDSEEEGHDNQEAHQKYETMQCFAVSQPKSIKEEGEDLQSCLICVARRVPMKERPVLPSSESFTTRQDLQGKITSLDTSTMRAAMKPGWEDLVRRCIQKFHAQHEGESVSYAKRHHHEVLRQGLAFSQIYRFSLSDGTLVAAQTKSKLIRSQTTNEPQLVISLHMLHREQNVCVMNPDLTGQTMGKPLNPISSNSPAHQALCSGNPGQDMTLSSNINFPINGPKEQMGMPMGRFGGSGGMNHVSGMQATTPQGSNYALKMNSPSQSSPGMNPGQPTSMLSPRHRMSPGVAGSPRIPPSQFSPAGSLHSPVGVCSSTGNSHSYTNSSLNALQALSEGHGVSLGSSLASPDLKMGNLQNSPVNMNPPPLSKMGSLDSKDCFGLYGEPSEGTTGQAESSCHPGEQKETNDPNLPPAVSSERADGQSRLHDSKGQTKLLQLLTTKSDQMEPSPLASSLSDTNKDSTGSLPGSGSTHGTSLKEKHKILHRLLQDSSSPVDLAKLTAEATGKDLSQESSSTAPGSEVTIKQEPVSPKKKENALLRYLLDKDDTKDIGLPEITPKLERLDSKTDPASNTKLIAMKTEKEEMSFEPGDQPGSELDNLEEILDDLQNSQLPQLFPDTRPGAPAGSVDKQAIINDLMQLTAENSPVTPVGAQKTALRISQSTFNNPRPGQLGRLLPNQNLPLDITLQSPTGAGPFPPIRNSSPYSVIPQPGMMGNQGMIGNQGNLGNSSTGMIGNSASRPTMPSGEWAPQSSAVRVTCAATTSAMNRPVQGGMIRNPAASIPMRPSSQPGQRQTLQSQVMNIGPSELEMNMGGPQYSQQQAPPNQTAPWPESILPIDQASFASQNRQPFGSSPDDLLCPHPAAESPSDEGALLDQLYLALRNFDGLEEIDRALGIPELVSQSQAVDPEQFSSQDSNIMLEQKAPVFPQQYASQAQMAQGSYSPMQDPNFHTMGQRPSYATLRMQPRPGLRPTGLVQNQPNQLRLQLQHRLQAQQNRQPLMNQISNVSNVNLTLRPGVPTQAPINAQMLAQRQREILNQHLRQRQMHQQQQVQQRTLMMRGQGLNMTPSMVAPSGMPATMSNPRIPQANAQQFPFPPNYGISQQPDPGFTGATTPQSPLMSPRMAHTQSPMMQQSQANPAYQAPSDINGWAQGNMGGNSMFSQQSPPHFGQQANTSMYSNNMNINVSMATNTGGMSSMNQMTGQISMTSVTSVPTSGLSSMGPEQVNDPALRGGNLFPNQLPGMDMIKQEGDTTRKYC
# [11] = molecular target: Peroxisome proliferator-activated receptor gamma/Nuclear receptor coactivator 1 (Homo sapiens, UniProt P37231); type: functional;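 also: agonist potency as compounds enhance coactivator SRC-1 recruitment to PPARgamma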
# [12] = molecular target: Peroxisome proliferator-activated receptor gamma/Nuclear receptor coactivator 3 (Homo sapiens, UniProt P37231); type: functional;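 also: agonist potency for raising coactivator recruitment to the receptor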
# Chain of Peroxisome proliferator-activated receptor gamma/Nuclear receptor coactivator 3 (P37231 whole entry): as the sequence (P37231 whole entry) above
# Chain of Peroxisome proliferator-activated receptor gamma/Nuclear receptor coactivator 3 (Q9Y6Q9 whole entry, further chain): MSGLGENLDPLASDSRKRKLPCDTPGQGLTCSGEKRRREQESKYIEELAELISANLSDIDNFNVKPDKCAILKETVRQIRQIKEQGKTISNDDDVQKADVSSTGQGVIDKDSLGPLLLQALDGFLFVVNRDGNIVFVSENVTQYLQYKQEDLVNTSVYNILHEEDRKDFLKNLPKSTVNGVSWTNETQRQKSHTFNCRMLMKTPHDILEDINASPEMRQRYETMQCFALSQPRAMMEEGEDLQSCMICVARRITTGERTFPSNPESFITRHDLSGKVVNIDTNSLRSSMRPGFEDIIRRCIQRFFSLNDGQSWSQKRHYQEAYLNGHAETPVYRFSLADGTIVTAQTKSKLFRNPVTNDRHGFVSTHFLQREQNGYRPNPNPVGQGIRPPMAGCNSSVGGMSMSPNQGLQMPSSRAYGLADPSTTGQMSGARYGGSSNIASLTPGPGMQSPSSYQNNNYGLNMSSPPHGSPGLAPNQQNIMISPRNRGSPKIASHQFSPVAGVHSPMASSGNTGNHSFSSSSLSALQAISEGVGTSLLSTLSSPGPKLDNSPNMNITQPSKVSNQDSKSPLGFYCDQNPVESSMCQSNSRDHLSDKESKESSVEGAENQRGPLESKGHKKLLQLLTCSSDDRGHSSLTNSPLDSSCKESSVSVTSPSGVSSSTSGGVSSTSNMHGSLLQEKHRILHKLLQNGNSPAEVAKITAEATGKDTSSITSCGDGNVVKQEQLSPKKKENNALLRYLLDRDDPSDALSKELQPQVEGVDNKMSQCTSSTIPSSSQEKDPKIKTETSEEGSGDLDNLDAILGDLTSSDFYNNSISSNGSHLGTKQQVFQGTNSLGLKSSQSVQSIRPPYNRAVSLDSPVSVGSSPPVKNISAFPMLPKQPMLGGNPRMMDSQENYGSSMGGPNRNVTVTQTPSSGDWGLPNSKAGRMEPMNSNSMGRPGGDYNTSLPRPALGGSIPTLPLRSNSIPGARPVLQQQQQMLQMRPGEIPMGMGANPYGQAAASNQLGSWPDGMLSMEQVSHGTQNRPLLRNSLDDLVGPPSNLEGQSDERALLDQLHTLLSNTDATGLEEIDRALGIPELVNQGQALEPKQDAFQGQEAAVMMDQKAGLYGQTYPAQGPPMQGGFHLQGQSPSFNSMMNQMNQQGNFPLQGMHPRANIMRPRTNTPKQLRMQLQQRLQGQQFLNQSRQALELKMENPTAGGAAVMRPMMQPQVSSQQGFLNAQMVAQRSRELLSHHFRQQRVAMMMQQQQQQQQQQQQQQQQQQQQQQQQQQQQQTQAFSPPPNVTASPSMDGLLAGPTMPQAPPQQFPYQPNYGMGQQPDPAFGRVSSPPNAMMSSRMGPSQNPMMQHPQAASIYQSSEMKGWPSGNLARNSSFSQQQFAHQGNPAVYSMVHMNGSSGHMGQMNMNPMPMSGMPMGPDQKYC
# [13] = cytotoxicity in KRAS-transformed pancreatic duct cells, primary screen, cell-based, fluorescence, HTS (AID 431); type: functional; details: Homo sapiens;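 also: cell line used: HPDE-C7K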
# [14] = cytotoxicity in HPDE-C7 cells, cell-based, fluorescence, HTS (AID 430); type: functional; details: Homo sapiens
# [15] = molecular target: T3, Heat shock factor protein 1 (Mus musculus, UniProt P38532); test: inhibition of MG132-induced HSE-luciferase signal, confirmation, cell-based, NIH3T3, luminescence, dose retest (AID 2382); type: functional;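 also: NIH3T3 fibroblasts with HSF1-driven luciferase reporter stressed by proteasome inhibitor MG132; luminescence from HSF1-driven luciferase expression after 8 hours of MG132 stress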
# T3 sequence (P38532 whole entry): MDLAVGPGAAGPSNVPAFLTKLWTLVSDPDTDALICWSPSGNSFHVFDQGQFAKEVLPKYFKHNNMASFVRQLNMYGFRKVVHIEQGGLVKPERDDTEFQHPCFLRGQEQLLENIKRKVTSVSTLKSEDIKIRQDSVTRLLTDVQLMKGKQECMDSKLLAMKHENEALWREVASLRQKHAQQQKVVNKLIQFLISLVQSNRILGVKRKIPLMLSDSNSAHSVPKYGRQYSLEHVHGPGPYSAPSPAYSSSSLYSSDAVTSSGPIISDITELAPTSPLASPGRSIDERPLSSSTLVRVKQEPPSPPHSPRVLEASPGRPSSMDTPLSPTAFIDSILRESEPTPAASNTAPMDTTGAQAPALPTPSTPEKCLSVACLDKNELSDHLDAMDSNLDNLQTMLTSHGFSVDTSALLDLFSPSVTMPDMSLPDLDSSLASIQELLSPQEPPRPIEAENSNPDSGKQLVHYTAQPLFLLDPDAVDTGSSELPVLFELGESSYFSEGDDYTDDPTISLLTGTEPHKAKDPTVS
# [16] = P. falciparum ATP4 D1247Y mutant growth inhibitors, dose response, NITD609-resistant line, SYBR Green, dry powder (AID 1159571); type: functional, cell-based;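 also: parasites synchronized at ring stage by sorbitol before testing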
# [17] = P. falciparum 3D7-ScDHODH growth inhibitors, dose response, SYBR Green, dry powder samples (AID 1159570); type: functional, cell-based;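 also: parasite growth measured after 72 hours of compound exposure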
# [18] = P. falciparum Dd2 growth inhibitors, dose response, SYBR Green, cherry-picked samples (AID 1159567); type: functional, cell-based
# [19] = P. falciparum Dd2 growth inhibitors, dose response, SYBR Green, dry powder samples, set 9 (AID 1159568); type: functional, cell-based
# [20] = P. falciparum Dd2 growth inhibitors, dose response, SYBR Green, dry powder samples (AID 1159566); type: functional, cell-based;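 also: potency for growth inhibition with lower SYBR green DNA signal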
# [21] = molecular target: Heat shock protein HSP 90-alpha (Homo sapiens, UniProt P07900); test: Luminescence-based dose response biochemical high throughput screening assay for inhibitors of the Heat Shock Protein 90 (HSP90). [Related pubchem assays: 1831 (Summary AID.), 1846 (Confirmation screen.), 1789 (Primary screen.)]
# [22] = molecular target: T4, DNA repair protein RAD52 homolog (Homo sapiens, UniProt P43351); type: functional, biochemical
# T4 sequence (P43351 whole entry): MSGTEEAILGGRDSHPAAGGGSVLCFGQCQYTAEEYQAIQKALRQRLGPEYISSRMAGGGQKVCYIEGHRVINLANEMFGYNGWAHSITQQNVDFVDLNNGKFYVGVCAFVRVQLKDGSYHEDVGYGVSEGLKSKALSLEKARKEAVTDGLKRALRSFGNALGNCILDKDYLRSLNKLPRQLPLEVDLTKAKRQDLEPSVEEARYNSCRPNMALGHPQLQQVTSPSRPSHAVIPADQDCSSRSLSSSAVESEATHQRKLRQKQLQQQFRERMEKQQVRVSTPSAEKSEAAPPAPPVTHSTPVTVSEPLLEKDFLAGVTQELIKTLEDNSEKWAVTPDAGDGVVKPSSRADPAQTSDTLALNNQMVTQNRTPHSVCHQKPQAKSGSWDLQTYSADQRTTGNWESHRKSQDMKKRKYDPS
# [23] = Dose-response inhibition of insulin secretion in a rat insulinoma line at 5 mM glucose (AID 1117331); type: functional, cell-based; details: INS-1E
smiles,measurement,setting,value
COc1ccc(/C=N/Nc2nnc(-c3ncc[nH]3)c3ccccc23)cc1,EC50,[1],1.93 µM (active)
same,EC50,[2],< 0.1 µM (active)
same,EC50,[3],0.962 µM (active)
same,EC50,[4],> 12 µM (not active)
same,EC50,H4,65.2 µM (active)
same,EC50,[5],1.34 µM (active)
O=C(O)CN1C(=O)/C(=C\c2ccc(C(=O)O)cc2)SC1=S,IC50,[6],88.9 µM (active)
same,IC50,[7],24.5 µM (active)
same,IC50,[8],> 100 µM (not active)
same,IC50,[9],> 100 µM (inactive)
CCOC(=O)c1c(NC(=O)Cc2cccs2)sc(C(=O)NC2CCCC2)c1C,EC50,[10],> 79.4 µM (not active)
same,EC50,[11],> 79.4 µM (not active)
same,EC50,[12],> 79.4 µM (not active)
Cc1cc(C)c2c(n1)nn1c(N3CCN(c4ccccc4)CC3)cc(C)nc21,EC50,[13],> 20 µM (not active)
same,EC50,[14],> 20 µM (not active)
Cc1ccc(-n2ncc3c(NCc4ccc5c(c4)OCO5)ncnc32)c(C)c1,EC50,[13],> 20 µM (not active)
same,EC50,[14],> 20 µM (not active)
same,EC50,[15],> 195 µM (not active)
C[C@@H]1CN([C@@H](C)CO)C(=O)c2cccc(NC(=O)c3cnccn3)c2O[C@@H]1CN(C)Cc1ccc(-c2ccccc2)cc1,AC50,[16],0.357 µM (active)
same,AC50,[17],0.0947 µM (active)
same,AC50,[18],1.14 µM (active)
same,AC50,[19],0.378 µM (active)
same,AC50,[20],0.381 µM (active)
COc1ccccc1N(CC(=O)NCC1CCCO1)C(=O)CCC(=O)Nc1nccs1 (stereo not given),EC50,[10],> 79.4 µM (not active)
same,EC50,[11],> 79.4 µM (not active)
same,EC50,[12],> 79.4 µM (not active)
CC(=O)Oc1ccccc1/C=C/c1nc2ccccc2c(=O)o1,IC50,[21],5.31 µM (active)
COc1ccc(C(=O)CSc2nnc(-c3ccc(S(=O)(=O)N4CCOCC4)cc3)o2)cc1,EC50,[10],26.1 µM (not active)
same,EC50,[11],40.5 µM (not active)
same,EC50,[12],53.5 µM (not active)
CCOC(=O)N1CCN(S(=O)(=O)c2cc(Br)cc3c2N(C(C)=O)C(C)C3)CC1 (stereo not given),EC50,[13],> 20 µM (not active)
same,EC50,[14],> 20 µM (not active)
COc1ccc(/N=C/c2sc(O)c3ccccc23)cc1,EC50,[1],< 0.1 µM (active)
same,EC50,[2],< 0.1 µM (active)
same,EC50,[3],0.228 µM (active)
same,EC50,[4],0.315 µM (active)
same,EC50,H4,< 0.1 µM (active)
same,EC50,[5],0.433 µM (active)
CCCCOc1cc(C(=O)OCCN(CC)CC)ccc1N [BENOXINATE HYDROCHLORIDE],AC50,[22],33.9 µM (active)
same,IC50,[23],15.5 µM (inactive)
O=C(O)CN1C(=O)/C(=C\c2cccc([N+](=O)[O-])c2)SC1=S,IC50,[6],> 100 µM (inactive)
same,IC50,[7],> 100 µM (inactive)
same,IC50,[8],> 100 µM (not active)
same,IC50,[9],> 100 µM (inactive)
C[C@H]1CN([C@@H](C)CO)C(=O)c2cccc(NC(=O)NC3CCCCC3)c2O[C@H]1CN(C)Cc1ccc(C(F)(F)F)cc1,AC50,[19],31.7 µM (active)
